pKi: −log10 of the molar value.
Tests used:
[1] = target: T1, M2 receptor (right atrium) (Rattus norvegicus, UniProt P10980); assay: Antagonism to M2 receptor in isolated rat right atrium (carbachol dose-response); details: 32° C.
T1 construct: the right atrium was isolated; from tissue; host or cells: isolated right atrium of male SD rat
T1 sequence (P10980 1-466): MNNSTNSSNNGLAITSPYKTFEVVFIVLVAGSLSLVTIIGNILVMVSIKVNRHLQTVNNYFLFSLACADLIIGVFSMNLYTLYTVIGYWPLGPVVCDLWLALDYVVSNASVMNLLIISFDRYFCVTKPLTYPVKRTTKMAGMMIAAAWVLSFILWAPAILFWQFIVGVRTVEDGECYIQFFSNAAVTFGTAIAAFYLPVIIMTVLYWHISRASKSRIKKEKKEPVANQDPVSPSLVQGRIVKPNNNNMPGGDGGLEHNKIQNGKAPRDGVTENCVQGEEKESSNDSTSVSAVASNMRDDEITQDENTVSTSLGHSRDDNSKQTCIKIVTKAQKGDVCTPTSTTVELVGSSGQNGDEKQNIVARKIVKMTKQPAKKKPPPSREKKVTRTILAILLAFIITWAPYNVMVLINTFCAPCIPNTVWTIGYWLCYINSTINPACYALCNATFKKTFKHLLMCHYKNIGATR
Protocol: 1) Tests for Antagonism to M2 Receptor in an Isolated Rat Right Atrium
These tests were performed according to a conventional method. A male SD strain rat (weighing 300-500 g) was killed by exsanguination, and the right atrium was isolated. This preparation was isometrically suspended in organ bath filled with 20 ml of Krebs-Hanseleit solution (gassed with 95% O2 -5% CO2 and kept at 32° C.) with an initial tension of 0.5 g. The heart rate was recorded with a heart rate counter. After the preparation was equilibrated for 30 minutes, carbachol (10^-9 to 10^-6 M) was cumulatively administered in three-fold increasing doses. Thus, a decrease in heart rate was measured to obtain a dose-response curve for the control experiment. After the preparation was washed with fresh solution to restore the heart rate, a test compound was administered thereto. Ten minutes later, carbachol was cumulatively administered again. Responses to carbachol were expressed as percentages based on the heart rate before the administration of carbachol as 100%. The antagonistic potency (KB value) of the test compound was determined from the degree of shift of the dose-response curve obtained by treatment with individual test compound of the present invention.

[2] = tested on: muscarinic M3 receptor; assay: Bronchodilation in dogs (oral administration), methacholine provocation test; assay type: in vivo, dog (beagle); details: 0.1 mg/kg, P.O., 4 hrs later
Protocol: Tests for Antagonism Against Muscarinic M3 Receptor (in vivo)
Tests for Bronchodilation in Dogs (oral administration)
Male beagles of 12 to 24 months of age, weight 10 to 15 kg, were anesthetized with pentobarbital (30 mg/kg, iv.), and the trachea of each dog was intubated. The sensitivity of the airway (methacoline reaction threshold value) was measured at least twice at two weeks' intervals by a methacoline provocation test, and dogs manifesting a reproducible methacoline reaction threshold value^1) were selected. To those dogs whose methacholine reaction threshold value was established, the test compound was orally administered (0.1 mg/kg). Four hours after the administration, a methacoline provocation test was again conducted, and the methacholine reaction threshold value^2) after the administration of the test compound was measured. The brochodilator activity of the test compound was determined by the following equation: [formula]
The methacholine provocation test was conducted using an Astograph TCK-6100H model (Chest). Methacholine chloride was used as brochoconstritor, which was diluted with isotonic sodium chloride solution in 10 grade concentration levels from 40,000 μg/ml to 20,000, 10,000, 5,000, 2,500, 1,250, 625, 312.5, 156 and 78 μg/ml. The test animals were caused to inhale these methacoline aerosols for 1 min. at a time, starting with the lowest concentration upward, and the respiratory resistance was continuously recorded. The concentration of methacoline at which the respiratory resistance reached a value twice its initial level was deemed to be the methacholine threshold value.

[3] = target: T2, M3 receptor (trachea) (Rattus norvegicus, UniProt P08483); assay: Antagonism to airway M3 receptor in isolated rat trachea (carbachol dose-response); details: for Kb: isolated rat trachea, carbachol, 32° C.; for M2/M3 (ratio of KB): selectivity right atrium M2 over trachea M3, in vitro
T2 construct: the trachea was isolated; from tissue; host or cells: isolated trachea of male SD rat
Protocol: 2) Tests for Antagonism to the Airway M3 Receptor in an Isolated Rat Right Trachea
These tests were performed according to a conventional method. A male SD strain rat (weighing 300-500 g) was killed by exsanguination, and the trachea was isolated. Annular segments (2 mm wide) were cut out from the trachea and cut transversely at the anterior cartilage part to make an open ring preparation. The preparation was suspended in a Magnus tube filled with 5 ml of Krebs-Hanseleit solution (gassed with 95% O2 -5% CO2 and kept at 32° C.) with an initial tension of 1.0 g and a resting tension of 0.6 g. The tension of the preparation was recorded isometrically. After the preparation was equilibrated for an hour, the preparation was caused to contract twice with 10^-4 M carbachol, and the second contraction induced by carbachol was used as the reference contraction. After the preparation was washed with fresh solution to be restored to the base line, a test compound was administered thereto (or no treatment was given). Ten minutes later, carbachol (10^-8 to 10^-3 M) was cumulatively administered in three-fold increasing doses to obtain a dose-response curve. The dose-response curve was plotted by expressing responses as percentages based on the reference contraction of the preparation as 100%. The antagonistic potency (KB value) of the test compound was determined from the degree of shift of the dose-response curve obtained by treatment with the test compound.

[4] = target: T3, m3 muscarinic acetylcholine receptor (Homo sapiens, UniProt P20309); assay: biochemical; assay type: binding; details: for pKi: CHO cells expressing m3, 0.2 nM [3H]-N-methylscopolamine, pH 7.4, 120 min, room temperature; for m2/m3 (ratio of Ki): selectivity m2 over m3, binding
T3 construct: purchased Receptor Biology Inc; host or cells: CHO cells
Protocol: (§1) These tests were performed according to a modification of the method of Hargreaves et al. (Br. J. Pharmacol. 107: pp. 494-501, 1992). Thus, CHO cells expressing m2 and m3 muscarinic acetylcholine receptors (Receptor Biology Inc.) were incubated with 0.2 nM [^3 H]-N-methylscopolamine (84Ci/mmol, New England Nuclear, Inc.) and each compound of the present invention to be tested in 0.5 ml of 50 mM tris-HCl--10 mM MgCl2 --1 mM EDTA (pH 7.4) for 120 minutes at room temperature (about 20 to 25° C.), followed by suction filtration with a glass filter (Uni-Filter plate GF/C; Packard Instruments Co., Ind.) and washing four times with 1 ml of ice-cold Tris-HCl buffer. After the filter was dried for 1 hour at 50° C., a scintillator (Miroscinti 0; Packard Instruments Co., Inc.) was added, and the radioactivity of [^3 H]-N-methylscopolamine adsorbed by the filter was counted by a liquid scintillation counter (TopCount™; Packard Instruments Co., Inc.). Non-specific binding of [^3 H]-N-methylscopolamine was measured in the presence of 1 μM N-methylscopolamine, which was added. According to the method of Cheng and Prusoff (Biochem. Pharmacol. 22: pp. 3099-3108, 1973), the binding affinity (Ki value) of the compound of the present invention for muscarinic receptors was calculated from the concentration (IC50) of the test compound which achieved 50% inhibition of the binding of [^3 H]-N-methylscopolamine, labeled ligand.

[5] = target: T4, m2 muscarinic acetylcholine receptor (Homo sapiens, UniProt P08172); assay: biochemical; assay type: binding; details: CHO cells expressing m2; 0.2 nM [3H]-N-methylscopolamine, pH 7.4, 120 min, room temperature
T4 construct: purchased Receptor Biology Inc; host or cells: CHO cells
T4 sequence (P08172 1-466): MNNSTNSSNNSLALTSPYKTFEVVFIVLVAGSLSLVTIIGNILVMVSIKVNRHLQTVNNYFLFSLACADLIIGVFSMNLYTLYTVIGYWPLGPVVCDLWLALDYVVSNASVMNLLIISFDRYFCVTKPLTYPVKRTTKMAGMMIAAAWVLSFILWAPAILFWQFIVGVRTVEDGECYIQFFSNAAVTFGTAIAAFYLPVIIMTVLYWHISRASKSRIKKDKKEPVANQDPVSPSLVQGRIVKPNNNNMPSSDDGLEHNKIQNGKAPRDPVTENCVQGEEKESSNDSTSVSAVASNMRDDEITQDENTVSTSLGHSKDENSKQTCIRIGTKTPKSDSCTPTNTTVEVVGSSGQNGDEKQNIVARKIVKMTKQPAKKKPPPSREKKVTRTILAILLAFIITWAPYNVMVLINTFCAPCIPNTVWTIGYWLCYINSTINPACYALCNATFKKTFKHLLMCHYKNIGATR
Protocol: as §1

T3 sequence (P20309 whole entry): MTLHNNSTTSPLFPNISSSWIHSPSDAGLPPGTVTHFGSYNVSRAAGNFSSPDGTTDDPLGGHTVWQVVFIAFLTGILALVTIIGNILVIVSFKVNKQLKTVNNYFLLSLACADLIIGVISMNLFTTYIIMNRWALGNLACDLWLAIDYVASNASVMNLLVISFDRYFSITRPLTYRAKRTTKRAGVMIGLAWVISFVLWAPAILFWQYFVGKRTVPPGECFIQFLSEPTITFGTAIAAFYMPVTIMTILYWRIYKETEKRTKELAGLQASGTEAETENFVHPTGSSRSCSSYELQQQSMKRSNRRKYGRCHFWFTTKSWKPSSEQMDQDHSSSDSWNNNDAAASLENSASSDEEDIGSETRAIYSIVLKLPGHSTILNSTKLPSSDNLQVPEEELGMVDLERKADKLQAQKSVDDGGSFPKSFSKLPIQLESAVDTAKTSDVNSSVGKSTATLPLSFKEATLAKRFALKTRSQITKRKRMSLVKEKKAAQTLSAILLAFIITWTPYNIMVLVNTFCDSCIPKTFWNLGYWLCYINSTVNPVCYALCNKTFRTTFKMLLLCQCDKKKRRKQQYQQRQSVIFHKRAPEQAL
T2 sequence (P08483 whole entry): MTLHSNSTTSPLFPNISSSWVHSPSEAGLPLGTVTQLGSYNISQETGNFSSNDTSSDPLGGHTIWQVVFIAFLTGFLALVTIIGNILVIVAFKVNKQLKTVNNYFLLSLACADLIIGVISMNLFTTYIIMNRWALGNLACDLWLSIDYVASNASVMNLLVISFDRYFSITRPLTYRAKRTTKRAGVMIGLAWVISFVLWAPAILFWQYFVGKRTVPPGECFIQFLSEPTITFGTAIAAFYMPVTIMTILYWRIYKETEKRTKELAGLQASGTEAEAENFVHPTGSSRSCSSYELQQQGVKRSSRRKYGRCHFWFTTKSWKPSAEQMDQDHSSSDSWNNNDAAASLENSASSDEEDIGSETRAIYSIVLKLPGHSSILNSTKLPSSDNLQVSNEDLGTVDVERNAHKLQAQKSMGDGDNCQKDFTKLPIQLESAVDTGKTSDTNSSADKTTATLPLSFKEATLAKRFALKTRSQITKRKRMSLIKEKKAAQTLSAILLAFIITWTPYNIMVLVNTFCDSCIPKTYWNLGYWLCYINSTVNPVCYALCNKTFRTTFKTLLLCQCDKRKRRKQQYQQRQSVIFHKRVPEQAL

SMILES: O=C(N1C[C@H]2CCNCC[C@H]2C1)[C@](O)(c1ccccc1)[C@@H]1CCC(F)(F)C1 [Example 29, 9-{(2R)-2-((1R)-3,3-difluorocyclopentyl)-2-hydroxy-2-phenylacetyl}-cis-4,9-diazabicyclo[5.3.0]decane]
- Kb [1]: 0.23 µM
- Methacoline Provocation Test Shift value [2]: 22
- Kb [3]: 0.0016 µM
- M2/M3 (ratio of KB) [3]: 140
- pKi [4]: 8.92
- m2/m3 (ratio of Ki) [4]: 190
- pKi [5]: 6.64

SMILES: CC1NCCC12CCN(C(=O)[C@](O)(c1ccccc1)[C@@H]1CCC(F)(F)C1)CC2 (single isomer, unassigned) [Example 43 ((IS*)-substance), (1R*)- and (1S*)-8-{(2R)-2-((1R)-3,3-difluorocyclopentyl)-2-hydroxy-2-phenylacetyl}-1-methyl-2,8-diazaspiro[4.5]decane]
- Methacoline Provocation Test Shift value [2]: 22
- pKi [4]: 9.59
- m2/m3 (ratio of Ki) [4]: 80
- pKi [5]: 7.68

SMILES: O=C(N1CCC2(CCNC2)CC1)[C@](O)(c1ccccc1)[C@@H]1CCC(F)(F)C1 [Example 26, 8-{(2R)-2-((1R)-3,3-difluorocyclopentyl)-2-hydroxy-2-phenylacetyl}-2,8-diazaspiro[4.5]decane]
- Kb [1]: 0.075 µM
- Methacoline Provocation Test Shift value [2]: 7.1
- Kb [3]: 0.00083 µM
- M2/M3 (ratio of KB) [3]: 75
- pKi [4]: 9.36
- m2/m3 (ratio of Ki) [4]: 60
- pKi [5]: 7.57

SMILES: O=C(N1CC2=C(CNC2)C1)[C@](O)(c1ccccc1)[C@@H]1CCC(F)(F)C1 [Example 35, 3-{(2R)-2-((1R)-3,3-difluorocyclopentyl)-2-hydroxy-2-phenylacetyl}-3,7-diazabicyclo[3.3.0]oct-1(5)-ene]
- Kb [1]: 2.4 µM
- Methacoline Provocation Test Shift value [2]: 5.8
- Kb [3]: 0.008 µM
- M2/M3 (ratio of KB) [3]: 300
- pKi [4]: 8.38
- m2/m3 (ratio of Ki) [4]: 160
- pKi [5]: 6.17

SMILES: Cl.NC1CCN(C(=O)[C@](O)(c2ccccc2)[C@@H]2CCC(F)(F)C2)CC1 [Example 1, 4-Amino-1-{(2R)-2-((1R)-3,3-difluorocyclopentyl)-2-hydroxy-2-Phenylacetyl}piperidine monohydrochloride]
- Kb [1]: 0.73 µM
- Kb [3]: 0.02 µM
- M2/M3 (ratio of KB) [3]: 37
